From patent US20200109126A1 (priority 2017, published 2020)
Entries after “also recorded” stand apart in the source; their conditions may differ. Like-named read-outs stand apart in the source and are kept apart here.

How the values were obtained:
[1] = biological target: T1, hKOR (Homo sapiens, UniProt P41145); assay: Receptor binding with [3H]diprenorphine at hKOR; details: ± SD (two experiments) or SEM; (n) experiments; read-out: hKOR [3H]dyprenorphine Ki
[2] = biological target: humanDOR (Homo sapiens, UniProt P41143); assay: Receptor binding with [3H]diprenorphine at human DOR; details: ± SD (two experiments) or SEM; (n) experiments; read-out: humanDOR [3H]dyprenorphine Ki
[3] = biological target: T2, hMOR + Gqi5 (Homo sapiens, UniProt P35372); assay: IP accumulation assay, hMOR + Gqi5; format: cell-based; details: % morphine
T2 construct: expressed in transfected cells

[4] = biological target: T3, hMOR (Homo sapiens, UniProt P35372); assay: Receptor binding with [3H]diprenorphine at hMOR; details: ± SD (two experiments) or SEM; (n) experiments; read-out: hMOR [3H]dyprenorphine Ki
[5] = biological target: hDOR (Homo sapiens, UniProt P41143); assay: Radioligand binding studies (Example 6) at hDOR
Experimental: (§1) For a primary screen of selected molecules, binding to μOR was assessed by measuring competition against the radioligand ^3H-diprenorphine (^3H-DPN). […] The reaction contained 40 fmol of μOR and was incubated in a buffer of 20 mM HEPES pH 7.5, 100 mM sodium chloride, and 0.1% bovine serum albumin for 1 hour at 25° C. To separate free from bound radioligand, reactions were rapidly filtered over Whatman GF/B filters with the aid of a Brandel harvester and ^3H-DPN counts were measured by liquid scintillation. […] Subsequently, the 8 compounds were tested in full dose-response for affinity at the μOR and the κOR by the National Institutes of Mental Health Psychoactive Drug Screen Program (PDSP), as were the affinities of the compounds at the μOR, δOR, κOR, and the nociception receptor.

[6] = biological target: T3, hMOR; assay: Radioligand binding studies (Example 6) at hMOR
Experimental: as §1

[7] = biological target: T1, hKOR; assay: Radioligand binding studies (Example 6) at hKOR
Experimental: as §1

[8] = biological target: T4, μOR (Homo sapiens, UniProt P35372); assay: BRET-based cAMP accumulation assay (SAR of PZM21-29); format: cell-based; details: for loss of potency: compared to parent reference compound (PZM22)
[9] = biological target: T5, μOR:N127C (Homo sapiens, UniProt P35372, N129C); assay: Radioligand depletion assay, irreversible binding at μOR:N127C; details: wash-resistant inhibition of radioligand binding
T5 construct: expressed in transfected cells; host or cells: HEK 293

[10] = tested on: C57BL/6J mice; assay: Mouse whole body plethysmography (respiration); details: equianalgesic doses of PZM21, TRV130 and morphine (40 mg/kg, […], 10 mg/kg)
[11] = biological target: T4, μOR; assay: β-arrestin recruitment at μOR without GRK2; format: cell-based
[12] = biological target: T4, μOR; assay: β-arrestin recruitment at μOR with GRK2 co-expression; format: cell-based
[13] = tested on: C57BL/6J mice; assay: Conditioned place preference; details: mouse, in vivo
Experimental: On day 1 (preconditioning day), mice were placed in the central chamber and allowed to explore freely for 30 minutes. Time spent in each compartment was used to estimate baseline chamber preferences and mice showing specific chamber bias more than 70% were not studied further. On days 2-9 (conditioning days) mice were injected with either vehicle or drug and paired with either the white mesh or the black rod chambers. All mice received vehicle on days 2, 4, 6, 8 and drug on days 3, 5, 7, 9. On day 10 (test day), mice were again placed in the central chamber as on day 1 and allowed to explore freely for 30 minutes. Time spent in each chamber was expressed as percentage preference.

[14] = biological target: T6, κOR (Homo sapiens, UniProt P41145); assay: Gi/o Glosensor assay at κOR; format: cell-based
T6 construct: NIMH Psychoactive Drug Screening Program (PDSP)

[15] = biological target: T6, κOR; assay: Radioligand binding at κOR (PDSP)
[16] = biological target: T7, nociceptin receptor (Homo sapiens, UniProt P41146); assay: Gi/o Glosensor assay at nociceptin receptor; format: cell-based; details: ND = not detectable
T7 construct: NIMH Psychoactive Drug Screening Program (PDSP)

[17] = biological target: T4, μOR; assay: β-arrestin2 recruitment, PathHunter assay; format: cell-based
[18] = biological target: T4, μOR; assay: cell-based; format: cell-based

T6 sequence (P41145 whole entry): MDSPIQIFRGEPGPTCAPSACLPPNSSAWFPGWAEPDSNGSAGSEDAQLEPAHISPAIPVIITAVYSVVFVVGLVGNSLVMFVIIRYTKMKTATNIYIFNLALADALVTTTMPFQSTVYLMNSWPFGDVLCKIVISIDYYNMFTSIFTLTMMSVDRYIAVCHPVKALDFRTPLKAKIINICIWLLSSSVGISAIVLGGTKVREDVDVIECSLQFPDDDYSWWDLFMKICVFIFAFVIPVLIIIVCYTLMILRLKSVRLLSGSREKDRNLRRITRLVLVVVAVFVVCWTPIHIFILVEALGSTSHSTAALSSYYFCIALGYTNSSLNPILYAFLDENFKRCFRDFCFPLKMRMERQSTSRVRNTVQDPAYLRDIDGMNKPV
T1 sequence (P41145 whole entry): as above
Chain of hDOR (P41143 whole entry): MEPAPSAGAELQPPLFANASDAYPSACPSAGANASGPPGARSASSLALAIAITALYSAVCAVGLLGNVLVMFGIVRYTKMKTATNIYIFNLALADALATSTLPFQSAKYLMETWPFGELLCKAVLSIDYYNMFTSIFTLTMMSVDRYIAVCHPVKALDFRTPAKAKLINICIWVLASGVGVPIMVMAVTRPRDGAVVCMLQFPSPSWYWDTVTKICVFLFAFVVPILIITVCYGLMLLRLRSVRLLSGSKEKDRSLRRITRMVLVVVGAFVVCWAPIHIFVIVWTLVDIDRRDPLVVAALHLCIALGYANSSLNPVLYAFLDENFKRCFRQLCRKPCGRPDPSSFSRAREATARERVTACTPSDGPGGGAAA
Chain of humanDOR (P41143 whole entry): as above
T2 sequence (P35372 whole entry): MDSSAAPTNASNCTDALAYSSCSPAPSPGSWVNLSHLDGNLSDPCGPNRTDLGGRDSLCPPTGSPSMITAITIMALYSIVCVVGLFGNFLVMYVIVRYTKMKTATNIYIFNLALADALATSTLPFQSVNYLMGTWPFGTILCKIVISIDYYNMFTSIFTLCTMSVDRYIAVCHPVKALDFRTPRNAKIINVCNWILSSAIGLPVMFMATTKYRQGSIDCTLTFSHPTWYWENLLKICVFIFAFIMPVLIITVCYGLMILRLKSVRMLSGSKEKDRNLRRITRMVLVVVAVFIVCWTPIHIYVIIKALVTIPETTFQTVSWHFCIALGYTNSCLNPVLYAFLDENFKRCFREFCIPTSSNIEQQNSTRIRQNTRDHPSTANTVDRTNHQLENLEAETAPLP
T4 sequence (P35372 whole entry): as above
T3 sequence (P35372 whole entry): as above
T5 sequence (P35372 whole entry N129C): as the sequence (P35372 whole entry) above, with N129C counted along it
T7 sequence (P41146 whole entry): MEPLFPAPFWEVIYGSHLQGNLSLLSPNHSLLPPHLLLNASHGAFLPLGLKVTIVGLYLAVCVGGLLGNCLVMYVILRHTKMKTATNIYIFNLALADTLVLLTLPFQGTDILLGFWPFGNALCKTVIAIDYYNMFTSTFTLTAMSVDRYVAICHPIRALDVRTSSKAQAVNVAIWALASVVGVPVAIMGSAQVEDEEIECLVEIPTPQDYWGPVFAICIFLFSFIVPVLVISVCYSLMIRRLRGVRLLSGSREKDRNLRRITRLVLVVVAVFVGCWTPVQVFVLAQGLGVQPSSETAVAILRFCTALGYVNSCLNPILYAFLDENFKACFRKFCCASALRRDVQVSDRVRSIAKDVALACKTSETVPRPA

CC(Cc1ccsc1)NC(=O)NCC(Cc1ccc(O)cc1)N(C)C (single isomer, unassigned) [BD 122LR]
Ki [1]: 190 nM | Ki [2]: 88 nM | hMOR + Gqi5 IP accumulation assay efficacy a [3]: a: 17%

CC(Cc1ccsc1)NC(=O)NCC(Cc1ccc(O)cc1)N(C)C (single isomer, unassigned) [BD 122LS]
hMOR + Gqi5 IP accumulation assay efficacy a [3]: a: 73%

Cc1cc(O)cc(C)c1C[C@@H](CNC(=O)N[C@H](C)Cc1ccsc1)N(C)C [BD 131LR, 1-((S)-2-(dimethylamino)-3-(4-hydroxy-2,6-dimethylphenyl)propyl)-3-((R)-1-(thiophen-3-yl)propan-2-yl)urea]
Ki [1]: 12 nM | Ki [2]: 17 nM | hMOR + Gqi5 IP accumulation assay efficacy a @10 μM ([3]; @10 μM): @10 μM a: 10% | Ki [4]: 4.1 nM

Cc1cc(O)cc(C)c1C[C@@H](CNC(=O)N[C@@H](C)Cc1ccsc1)N(C)C [BD 131LS, 1-((S)-2-(dimethylamino)-3-(4-hydroxy-2,6-dimethylphenyl)propyl)-3-((S)-1-(thiophen-3-yl)propan-2-yl)urea]
Ki [1]: 6.5 nM | Ki [2]: 85 nM | hMOR + Gqi5 IP accumulation assay efficacy a [3]: a: <5% | Ki [4]: 12 nM

C[C@@H](Cc1ccsc1)NC(=O)NC[C@@H]1Cc2ccc(O)cc2CN1C [DD118, 1-(((S)-7-hydroxy-2-methyl-1,2,3,4-tetrahydroisoquinolin-3-yl)methyl)-3-((S)-1-(thiophen-3-yl)propan-2-yl)urea]
Ki [5]: 150 nM | Ki [6]: 150 nM | Ki [7]: 110 nM

COc1cc(F)ccc1CCNC(=O)NC[C@H](Cc1ccc(O)cc1)N(C)C [DD214, (S)-1-(2-(dimethylamino)-3-(4-hydroxyphenyl)propyl)-3-(4-fluoro-2-methoxyphenethyl)urea]
Ki [5]: 390 nM | Ki [6]: 42 nM | Ki [7]: 170 nM

COc1ccc(C[C@@H](CNC(=O)N[C@@H](C)Cc2ccsc2)N(C)C)cc1 [DD222, 1-((S)-2-(dimethylamino)-3-(4-methoxyphenyl)propyl)-3-((S)-1-(thiophen-3-yl)propan-2-yl)urea]
Ki [5]: 5900 nM | Ki [6]: 390 nM | Ki [7]: 460 nM

CN[C@H](CNC(=O)NCCc1ccc(F)cc1OC)Cc1ccc(O)cc1 [DD229, (5)-1-(4-fluoro-2-methoxyphenethyl)-3-(3-(4-hydroxyphenyl)-2-(methylamino)propyl)urea]
Ki ([5]; read-out: Binding affinities hDOR [3H]dyprenorph): 480 nM | Ki ([6]; read-out: Binding affinities hMOR [3H]dyprenorph): 130 nM | Ki ([7]; read-out: Binding affinities hKOR [3H]dyprenorph): 320 nM

CC(=O)Oc1ccc(C[C@@H](CNC(=O)N[C@@H](C)Cc2ccsc2)N(C)C)cc1 [DD230, 4-((S)-2-(dimethylamino)-3-(3-((S)-1-(thiophen-3-yl)propan-2-yl)ureido)propyl)phenyl acetate]
Ki [5]: 920 nM | Ki [6]: 240 nM | Ki [7]: 250 nM

CN(C)[C@H](CNc1c(NCCc2ccccc2)c(=O)c1=O)Cc1ccc(O)cc1 [DD247, (S)-3-((2-(dimethylamino)-3-(4-hydroxyphenyl)propyl)amino)-4-(phenethylamino)cyclobut-3-ene-1,2-dione]
Ki [5]: 2900 nM | Ki [6]: 320 nM | Ki [7]: 310 nM

C[C@@H](Cc1ccsc1)Nc1c(NC[C@H](Cc2ccc(O)cc2)N(C)C)c(=O)c1=O [DD251, 3-(((S)-2-(dimethylamino)-3-(4-hydroxyphenyl)propyl)amino)-4-(((S)-1-(thiophen-3-yl)propan-2-yl)amino)cyclobut-3-ene-1,2-dione]
Ki [5]: 650 nM | Ki [6]: 33 nM | Ki [7]: 16 nM

CN(C)[C@H](CNc1nc(=O)cc(Cc2ccccc2)[nH]1)Cc1ccc(O)cc1 [DD258, (S)-6-benzyl-2-((2-(dimethylamino)-3-(4-hydroxyphenyl)propyl)amino)pyrimidin-4(1H)-one]
Ki [5]: 390 nM | Ki [6]: 290 nM | Ki [7]: 350 nM

CN(CC1CC1)[C@H](CNC(=O)NCCc1ccccc1)Cc1ccc(O)cc1 [PZM27, (S)-1-(2-((Cyclopropylmethyl)(methyl)amino)-3-(4-hydroxyphenyl)propyl)-3-phenethylurea x CF3COOH]
efficacy and potency as agonist (in words) [8]: decreased efficacy | loss of potency [8]: 30 fold

CN(C=O)[C@H](CNC(=O)NCCc1ccccc1)Cc1ccc(O)cc1 [PZM28, (S)—N-(1-(4-Hydroxyphenyl)-3-(3-phenethylureido)propan-2-yl)-N-methylformamide]
loss of potency [8]: 1000 fold

CN(C)[C@H](CNC(=O)NCCc1cn(CCSSCCN=[N+]=[N-])nn1)Cc1ccc(O)cc1 [PZM29, (S)-1-(2-(1-(2-((2-Azidoethyl)disulfanyl)ethyl)-1H-1,2,3-triazol-4-yl)ethyl)-3-(2-(dimethylamino)-3-(4-hydroxyphenyl)propyl)urea x CF3COOH]
efficacy and potency as agonist (in words) [8]: retains its efficacy as an agonist | irreversible binding to μOR:N127C [9]: binds to the μOR:N127C variant irreversibly; also recorded: binds irreversibly to this mutant

COc1ccsc1CNCC[C@@]1(c2ccccn2)CCOC2(CCCC2)C1 [TRV130, reference compound]
respiration frequency [10]: significantly depresses respiration at 15 minutes | β-arrestin2 recruitment in the absence of GRK2 (in words) [11]: no β-arrestin2 recruitment | arrestin recruitment with over-expressed GRK2 (in words) [12]: arrestin recruitment | conditioned place preference [13]: not significant relative to vehicle | KOR agonist activity (in words) [14]: activates κOR with similar potency to morphine

C[C@H](Cc1ccsc1)NC(=O)NC[C@@H](Cc1ccccc1)N(C)C [compound 12]
Ki ([15]; Ki (nM) κOR): 464 nM | Ki ([15]; κOR Ki (μM), analogs, full dose-response): 460 nM | EC50 [16]: 1400 nM | β-arrestin2 recruitment (in words) [17]: undetectable; also recorded: low levels | Gi/o activation, μOR agonist activity (in words) [18]: robust μOR agonist activity; also recorded: strongly activated Gi/o

(S)-1-(2-(dimethylamino)-3-(4-hydroxy-2,6-dimethylphenyl)propyl)-3-(2-(thiophen-3-yl)ethyl)urea [DD 34L]
Ki [1]: 27 nM | Ki [2]: 51 nM | hMOR + Gqi5 IP accumulation assay efficacy a [3]: a: <5% | Ki [4]: 6.2 nM
